Data taken from PMC5809559, “DYRK1A inhibition and cognitive rescue in a Down syndrome mouse model are induced by new fluoro-DANDY derivatives” (Scientific Reports, 2018).
Read-outs that look alike come from different tables or passages of the source.

Key:
KB cells = assay: KB cell proliferation / cytotoxicity (CellTiter-Blue); type: cell-based; settings: Homo sapiens, KB, 72 h, 72 h
Description: Cancer cell lines were obtained from the American Type Culture Collection (Rockville, MD, USA) and were cultured according to the supplier’s instructions. Briefly, human KB epidermal carcinoma cells were grown in Dulbecco minimal essential medium (DMEM) containing 4.5 g/L glucose supplemented with 10% fetal calf serum (FCS) and 1% glutamine, 100 UI penicillin, 100 µg/mL streptomycin and 1.5 µg/mL fungizone and maintained at 37 °C in a humidified atmosphere containing 5% CO2. Cell viability was assessed using Promega CellTiter-Blue TM reagent according to the manufacturer’s instructions. Cells were seeded in 96-well plates (5 × 10^3 cells/well) containing […]. After 24 h of culture, the cells were supplemented with […] of the studied compound dissolved in DMSO (less than 0.1% in each preparation). After 72 h of incubation, […] of resazurin was added for 2 h before recording fluorescence (λex = 560 nm, λem = 590 nm) using a Victor microtiter plate fluorimeter (Perkin-Elmer, USA).

[1] = Plasma and brain homogenate concentrations after Morris Water Maze (UHPLC-MS/MS); type: in vivo, mice; settings: for average plasma concentration: 20 mg/kg i.p. daily, after MWM; for Kp: mouse, brain, intraperitoneal, 20 mg/kg, read-out: partition coefficient at steady state (Kp = brain concentration/plasma concentration)
Description: […]. To that end, all animals were sacrificed directly after the Morris Water Maze (MWM) and plasma and brain homogenates (one hemisphere) were extracted and analyzed. […]. […] […]. However, Kp values might be underestimated due to high plasma levels that could saturate efflux transport to the brain.
All plasma and brain homogenate extracts were analyzed by an ultra-high performance liquid chromatography (UHPLC) system coupled to a triple-quadrupole mass spectrometer (Dionex Ultimate 3000 RSLC system coupled to a TSQ Vantage EMR, Thermo Scientific, Les Ulis, France). UHPLC separation was performed using a C18 column (HSS T3, 2.1 mm × 150 mm, 1.7 μm, Waters, Guyancourt, France) equipped with a guard column (HSS T3, 2.1 mm × 5 mm, 1.7 μm, Waters, Guyancourt, France) and maintained at 40 °C. The mobile phases were water, 0.1% formic acid (A) and acetonitrile (B). […]. Injection volume was 4 µL and the autosampler was maintained at 6 °C. Ionization was performed with a heated electrospray ionization source in positive mode. The source parameters were set as follows: spray voltage 3350 V, vaporizer temperature 250 °C, sheath gas (N2) pressure 55 psi, auxiliary gas pressure (N2) 25 psi, capillary temperature 350 °C. Analysis was performed under the Selected Reaction Monitoring (SRM) mode using several transitions for each compound at optimized collision energies (see Table SI2 and Figure SI1). […]. Data acquisition was performed using ThermoScientific Xcalibur 2.1 software system. All samples were analyzed in triplicate.
Two compounds, V[34] (Fig. 9) and 5d, were tested as internal standard (IS). […] Calibration curve points and quality control (QC) points were realized in spiked plasma or brain homogenate samples (Figure SI2). […]. Samples with concentrations above the upper calibration point were diluted to be in the calibration range. Limit of quantification (LOQ) was determined as the lowest point of the calibration curve at 1.6 pg/μL. QC samples were prepared at 14.5 and 58 pg/μL to validate the between-run precision (n = 3, RSD of 13% and 5%, respectively), between-run trueness was 95 and 88% respectively. […]. Limit of quantification (LOQ) was determined as the lowest point of the calibration curve at 1.6 pg/mg. QC samples were prepared at 3.2 and 22.4 pg/mg to validate the between-run precision (n = 3, RSD of 8% and 2% respectively), between-run trueness was 129 and 93% respectively.
Immediately following last day of training in the MWM, mice were sacrificed by decapitation for maximal blood collection and the brain was immediately extracted from the skull, the cerebellum removed and the hemispheres separated and frozen at −80 °C. Plasma was obtained as described above. […]. Subsequently, the IS was added to 400 µL of homogenate which was then centrifuged (12 min, 14000 × g, 4 °C). The supernatant was evaporated and transferred into 40 µL acetonitrile/methanol/water (2/2/1). After centrifugation (12 min, 14000 × g, 4 °C), 4 µL of supernatant was used for UHPLC-MS/MS analysis.

SMILES: Oc1ccc(-c2cnc3[nH]cc(-c4ccc(F)cc4)c3c2)cc1O [Compound 5a, 3-(4-fluorophenyl)-5-(3,4-dihydroxyphenyl)-1H-pyrrolo[2,3-b]pyridine]
- inhibition at 10 µM (KB cells; 10^−5 M, read-out: % Growth inhibition 10^−5 M): < 50%
- inhibition at 1 µM (KB cells; 10^−6 M, read-out: % Growth inhibition 10^−6 M): 0%
- average plasma concentration ([1]; Ts65Dn mice, n = 9): 0.84 ± 0.54 µM
- mean brain concentration ([1]; Ts65Dn mice, n = 5, assuming vascular space 15 µL/g tissue): 6.67 ± 4.64 µM
- average plasma concentration ([1]; WT mice, n = 10): 0.50 ± 0.28 µM
- mean brain concentration ([1]; WT mice, n = 4, assuming vascular space 15 µL/g tissue): 6.61 ± 5.35 µM
- Kp ([1]; Ts65Dn mice): 6.43 ± 3.38
- Kp ([1]; WT mice): 10.8 ± 9.55
